GI50 and TGI data for 9 compounds are collected here from PubChem BioAssay (NCI).

Among the test systems are UACC-62 melanoma; ACHN renal; RPMI-8226 leukemia; SNB-19 CNS; OVCAR-8 ovarian; UO-31 renal; SK-MEL-2 melanoma; SK-OV-3 ovarian; SF-268 CNS; HOP-62 NSCLC.
Experiment in all cases: NCI-60 cell line screen, 48 h

“And” between values parts separate entries of the source, which are not always exact repeats. Equal entries are not always repeated.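 Where inhibition never reached the appropriate level, the endpoint shown equals the highest concentration tested. Otherwise, values were interpolated linearly from a five-concentration, 48-hour dose response in 96-well plates. GI50 marks 50% less growth. TGI denotes the concentration required for complete inhibition of growth.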

As for `Cc1nc(N2CCC3(CC2)CO[C@@H](C)[C@H]3N)c(CO)nc1Sc1ccnc(N)c1Cl`, the GI50 in the assay on UACC-62 melanoma was > 100 µM; in the assay on ACHN renal it was 4.81 µM; in the assay on RPMI-8226 leukemia, 49.3 µM; in the assay on SNB-19 CNS, 14.8 µM; in the assay on OVCAR-8 ovarian, 75.6 µM; with UO-31 renal it was 0.973 µM. In addition, the GI50 in the assay with SK-MEL-2 melanoma was > 100 µM; with SK-OV-3 ovarian, 0.789 µM; with SF-268 CNS, 12.8 µM; in the assay on HOP-62 NSCLC, 28 µM. Further, the TGI in the assay on UACC-62 melanoma, in the assay on ACHN renal, in the assay with RPMI-8226 leukemia, in the assay with SNB-19 CNS, with OVCAR-8 ovarian and in the assay on UO-31 renal was > 100 µM throughout. Further, the TGI in the assay with SK-MEL-2 melanoma, with SK-OV-3 ovarian, in the assay on SF-268 CNS and with HOP-62 NSCLC was > 100 µM each time.
Regarding `Cc1cc(N(CCC#N)S(C)(=O)=O)ccc1C=Nc1ccc(C(=O)NN2C(=O)/C(=C/c3ccc(N(CCC#N)CCC#N)cc3C)N=C2c2cc([N+](=O)[O-])ccc2Cl)cc1`, the TGI in the assay with UACC-62 melanoma, with ACHN renal, in the assay with RPMI-8226 leukemia, with SNB-19 CNS, in the assay with OVCAR-8 ovarian and with UO-31 renal was > 100 µM throughout. In addition, the TGI in the assay on SK-MEL-2 melanoma, in the assay on SK-OV-3 ovarian, in the assay on SF-268 CNS and in the assay on HOP-62 NSCLC was > 100 µM in each case.
With `COc1cccc(NC(=O)c2sc3nc4c(cc3c2N)C(=O)CCC4)c1`, the GI50 was 0.0749 µM with UACC-62 melanoma; 0.568 µM in the assay with ACHN renal; 0.332 µM in the assay with RPMI-8226 leukemia; 1.72 µM in the assay on SNB-19 CNS; 0.402 µM in the assay with OVCAR-8 ovarian; 0.449 µM in the assay on UO-31 renal. The GI50 in the assay with SK-MEL-2 melanoma was 0.0611 µM; in the assay with SK-OV-3 ovarian it was 0.183 µM; with SF-268 CNS, 0.725 µM; in the assay with HOP-62 NSCLC it was 0.337 µM. In addition, the TGI in the assay on UACC-62 melanoma, in the assay with ACHN renal, in the assay on RPMI-8226 leukemia, with SNB-19 CNS, in the assay with OVCAR-8 ovarian and in the assay on UO-31 renal was > 100 µM in each case. In addition, the TGI with SK-MEL-2 melanoma was > 100 µM; in the assay on SK-OV-3 ovarian it was > 78.1 µM; in the assay with SF-268 CNS, > 100 µM; in the assay on HOP-62 NSCLC, > 100 µM.
For the compound `Cc1cc(C)c(NC(=S)NC(=O)c2ccccc2)cc1C`, the TGI in the assay on UACC-62 melanoma, in the assay on ACHN renal, with RPMI-8226 leukemia, in the assay with SNB-19 CNS, with OVCAR-8 ovarian and in the assay with UO-31 renal was > 100 µM throughout. The TGI in the assay on SK-MEL-2 melanoma, in the assay on SK-OV-3 ovarian, with SF-268 CNS and with HOP-62 NSCLC was > 100 µM each time.
Consider `O=C(/C=C/c1ccccc1)n1c(-c2ccc(Cl)cc2)nc2ccccc21`, for which the GI50 is 1.27 µM in the assay with UACC-62 melanoma; 1.18 µM in the assay on ACHN renal; 0.614 µM with RPMI-8226 leukemia; 3.13 µM in the assay with SNB-19 CNS; 0.752 µM with OVCAR-8 ovarian; 1.1 µM in the assay with UO-31 renal. The GI50 in the assay on SK-MEL-2 melanoma is 2.1 µM; in the assay on SK-OV-3 ovarian it was 2.43 µM; in the assay on SF-268 CNS it was 2.1 µM; in the assay on HOP-62 NSCLC it was 2.72 µM. The TGI in the assay with UACC-62 melanoma worked out at 2.88 µM; in the assay with ACHN renal, 10 µM; in the assay with RPMI-8226 leukemia it was 3.82 µM; in the assay on SNB-19 CNS it was 12.8 µM; in the assay with OVCAR-8 ovarian, 10.3 µM; in the assay with UO-31 renal, 3.55 µM. The TGI came to 4.35 µM in the assay with SK-MEL-2 melanoma, 5.71 µM in the assay with SK-OV-3 ovarian, 6.14 µM with SF-268 CNS and 5.17 µM in the assay with HOP-62 NSCLC.
As for `Cc1ccc(C)c(C2NC(=O)c3ccccc3N2)c1` (stereo not given), the TGI in the assay with UACC-62 melanoma was > 70.3 µM; with ACHN renal it was > 89 µM; with RPMI-8226 leukemia, 16.4 µM; in the assay with SNB-19 CNS it was > 49.5 µM; in the assay on OVCAR-8 ovarian, > 79.6 µM; in the assay with UO-31 renal it was > 100 µM. Moreover, the TGI with SK-MEL-2 melanoma was 72.6 µM; in the assay with SK-OV-3 ovarian, > 75.1 µM; in the assay on SF-268 CNS it was > 100 µM; in the assay with HOP-62 NSCLC, > 87.6 µM.
In the case of `O=C1C(Cl)C(c2ccccc2O)N1n1cnc2ccccc2c1=O` (stereo not given), the TGI in the assay with UACC-62 melanoma, with ACHN renal, in the assay with RPMI-8226 leukemia, in the assay on SNB-19 CNS, in the assay with OVCAR-8 ovarian and with UO-31 renal was > 100 µM throughout. The TGI with SK-MEL-2 melanoma, with SK-OV-3 ovarian, with SF-268 CNS and with HOP-62 NSCLC was > 100 µM in each case.
With `Cc1sc2c(c1C)C(c1ccc(Cl)cc1)=N[C@@H](CC(=O)OC(C)(C)C)c1nnc(C)n1-2`, the GI50 in the assay on UACC-62 melanoma was 0.107 µM and 0.0685 µM; in the assay with ACHN renal, 0.67 µM and 0.496 µM; in the assay with RPMI-8226 leukemia, 0.142 µM and 0.0397 µM; with SNB-19 CNS it was 0.629 µM and 0.421 µM; in the assay with OVCAR-8 ovarian, 0.875 µM and 0.62 µM; in the assay with UO-31 renal, 0.0634 µM and 0.0301 µM. Also, the GI50 is 5.51 µM and 5.34 µM with SK-MEL-2 melanoma; 0.756 µM and 0.326 µM with SK-OV-3 ovarian; 11.5 µM and 4.73 µM with SF-268 CNS; 0.253 µM and 0.121 µM in the assay on HOP-62 NSCLC. The TGI was 20.3 µM and 15.8 µM in the assay with UACC-62 melanoma; 18.3 µM and 15.8 µM with ACHN renal; 2.92 µM and 0.477 µM in the assay with RPMI-8226 leukemia; > 47.2 µM and 18.9 µM in the assay with SNB-19 CNS; 26.8 µM and 20.5 µM in the assay with OVCAR-8 ovarian; 13.8 µM and 14.2 µM with UO-31 renal. Also, the TGI was 21.8 µM and 22.5 µM in the assay with SK-MEL-2 melanoma; 19.4 µM and 15.6 µM in the assay with SK-OV-3 ovarian; 26.2 µM and 21.8 µM in the assay with SF-268 CNS; 17.1 µM and 16.4 µM in the assay with HOP-62 NSCLC.
Turning to `CN1C(=O)C(=O)c2cc3c(c4c2c1cc1ccccc14)OCO3`, the TGI is 38.5 µM in the assay with UACC-62 melanoma; > 100 µM in the assay with ACHN renal; > 100 µM in the assay on RPMI-8226 leukemia; > 100 µM in the assay with SNB-19 CNS; > 100 µM with OVCAR-8 ovarian; > 100 µM in the assay on UO-31 renal. In addition, the TGI in the assay on SK-MEL-2 melanoma, in the assay on SK-OV-3 ovarian, in the assay on SF-268 CNS and with HOP-62 NSCLC was > 100 µM each time.
